# Data taken from ChEMBL document CHEMBL3525934 (Drug Metab Dispos, 2013).
# Legend:
# Type in all cases: ADME
# Settings in all cases: 0.5 h
# Cytochrome P450 1A1 = target: T1, Cytochrome P450 1A1 (Homo sapiens, UniProt P04798); test: Drug metabolism in supersomes expressing human recombinant CYP1A1 assessed as enzyme-mediated total GSH conjugate formation at 10 uM after 30 mins measured per nmol of P450 by HPLC analysis in presence of GSH and hGST P1-1
# T1 sequence (P04798 whole entry): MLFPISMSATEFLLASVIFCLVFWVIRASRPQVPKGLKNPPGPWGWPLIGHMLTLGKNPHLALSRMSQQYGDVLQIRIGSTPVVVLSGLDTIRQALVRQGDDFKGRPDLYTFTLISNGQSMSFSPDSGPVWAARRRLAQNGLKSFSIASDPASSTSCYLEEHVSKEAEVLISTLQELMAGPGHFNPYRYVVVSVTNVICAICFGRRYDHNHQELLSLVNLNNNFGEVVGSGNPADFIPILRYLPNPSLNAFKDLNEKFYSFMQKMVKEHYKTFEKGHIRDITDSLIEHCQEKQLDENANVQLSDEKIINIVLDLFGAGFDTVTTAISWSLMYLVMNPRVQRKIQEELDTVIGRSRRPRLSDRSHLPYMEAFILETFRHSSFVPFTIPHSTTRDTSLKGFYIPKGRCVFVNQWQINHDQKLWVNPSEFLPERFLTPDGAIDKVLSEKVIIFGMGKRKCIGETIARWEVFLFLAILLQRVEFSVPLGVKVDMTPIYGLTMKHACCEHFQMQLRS
# Cytochrome P450 2D6 = Cytochrome P450 2D6 (Homo sapiens, UniProt P10635); test: Drug metabolism in supersomes expressing human recombinant CYP2D6 assessed as enzyme-mediated clozapine-N-oxide metabolite formation at 10 uM after 30 mins measured per nmol of P450 by HPLC analysis
# Cytochrome P450 2C8 [1] = target: T2, Cytochrome P450 2C8 (Homo sapiens, UniProt P10632); test: Drug metabolism in supersomes expressing human recombinant CYP2C8 assessed as enzyme-mediated N-desmethylclozapine metabolite formation at 10 uM after 30 mins measured per nmol of P450 by HPLC analysis
# T2 sequence (P10632 whole entry): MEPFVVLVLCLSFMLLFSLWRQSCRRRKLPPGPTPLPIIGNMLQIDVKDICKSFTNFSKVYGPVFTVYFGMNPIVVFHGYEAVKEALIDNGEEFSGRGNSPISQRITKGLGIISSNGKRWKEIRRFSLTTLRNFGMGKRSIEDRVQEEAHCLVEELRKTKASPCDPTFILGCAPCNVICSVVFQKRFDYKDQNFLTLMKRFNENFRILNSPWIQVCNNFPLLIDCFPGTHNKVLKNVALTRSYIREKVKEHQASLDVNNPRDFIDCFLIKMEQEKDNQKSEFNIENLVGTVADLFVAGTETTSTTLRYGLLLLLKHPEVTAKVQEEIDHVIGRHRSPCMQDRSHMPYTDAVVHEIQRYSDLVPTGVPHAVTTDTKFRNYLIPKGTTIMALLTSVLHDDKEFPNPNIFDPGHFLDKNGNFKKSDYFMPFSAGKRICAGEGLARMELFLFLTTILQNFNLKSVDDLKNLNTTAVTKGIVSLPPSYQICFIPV
# Cytochrome P450 1A2 = target: T3, Cytochrome P450 1A2 (Homo sapiens, UniProt P05177); test: Drug metabolism in supersomes expressing human recombinant CYP1A2 assessed as enzyme-mediated cyanide adduct formation at 100 uM after 30 mins measured per nmol of P450 by HPLC analysis in presence of KCN
# T3 sequence (P05177 whole entry): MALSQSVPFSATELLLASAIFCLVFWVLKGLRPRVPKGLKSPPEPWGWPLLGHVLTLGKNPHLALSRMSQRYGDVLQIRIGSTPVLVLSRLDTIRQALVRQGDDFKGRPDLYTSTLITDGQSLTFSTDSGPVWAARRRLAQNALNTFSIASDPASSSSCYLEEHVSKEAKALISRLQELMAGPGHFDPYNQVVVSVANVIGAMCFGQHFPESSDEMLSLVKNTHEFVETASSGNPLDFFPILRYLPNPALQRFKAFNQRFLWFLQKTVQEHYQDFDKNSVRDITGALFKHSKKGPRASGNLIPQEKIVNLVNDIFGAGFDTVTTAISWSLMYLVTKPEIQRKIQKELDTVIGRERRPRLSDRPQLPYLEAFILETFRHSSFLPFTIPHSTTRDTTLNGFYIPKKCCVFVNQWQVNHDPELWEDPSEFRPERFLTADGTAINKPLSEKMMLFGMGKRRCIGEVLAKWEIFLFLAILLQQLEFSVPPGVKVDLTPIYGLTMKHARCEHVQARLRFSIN
# Cytochrome P450 2C8 [2] = target: T2, Cytochrome P450 2C8; test: Drug metabolism in supersomes expressing human recombinant CYP2C8 assessed as enzyme-mediated cyanide adduct formation at 100 uM after 30 mins measured per nmol of P450 by HPLC analysis in presence of KCN
# Cytochrome P450 2A6 = target: T4, Cytochrome P450 2A6 (Homo sapiens, UniProt P11509); test: Drug metabolism in supersomes expressing human recombinant CYP2A6 assessed as enzyme-mediated cyanide adduct formation at 100 uM after 30 mins measured per nmol of P450 by HPLC analysis in presence of KCN
# T4 sequence (P11509 whole entry): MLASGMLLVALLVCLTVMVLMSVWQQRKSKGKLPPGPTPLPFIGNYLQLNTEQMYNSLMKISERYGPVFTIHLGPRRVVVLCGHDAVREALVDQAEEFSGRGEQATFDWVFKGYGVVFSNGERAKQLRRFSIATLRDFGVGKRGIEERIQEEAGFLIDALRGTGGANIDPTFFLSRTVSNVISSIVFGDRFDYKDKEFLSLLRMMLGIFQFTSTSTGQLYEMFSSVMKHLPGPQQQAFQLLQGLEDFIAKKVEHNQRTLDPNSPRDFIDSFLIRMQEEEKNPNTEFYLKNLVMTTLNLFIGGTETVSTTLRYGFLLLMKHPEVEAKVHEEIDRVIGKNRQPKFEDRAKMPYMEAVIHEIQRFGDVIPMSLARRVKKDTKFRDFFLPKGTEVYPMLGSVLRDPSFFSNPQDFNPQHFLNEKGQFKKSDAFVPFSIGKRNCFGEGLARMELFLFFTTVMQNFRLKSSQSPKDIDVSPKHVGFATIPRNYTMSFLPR
# Sequence of Cytochrome P450 2D6 (P10635 whole entry): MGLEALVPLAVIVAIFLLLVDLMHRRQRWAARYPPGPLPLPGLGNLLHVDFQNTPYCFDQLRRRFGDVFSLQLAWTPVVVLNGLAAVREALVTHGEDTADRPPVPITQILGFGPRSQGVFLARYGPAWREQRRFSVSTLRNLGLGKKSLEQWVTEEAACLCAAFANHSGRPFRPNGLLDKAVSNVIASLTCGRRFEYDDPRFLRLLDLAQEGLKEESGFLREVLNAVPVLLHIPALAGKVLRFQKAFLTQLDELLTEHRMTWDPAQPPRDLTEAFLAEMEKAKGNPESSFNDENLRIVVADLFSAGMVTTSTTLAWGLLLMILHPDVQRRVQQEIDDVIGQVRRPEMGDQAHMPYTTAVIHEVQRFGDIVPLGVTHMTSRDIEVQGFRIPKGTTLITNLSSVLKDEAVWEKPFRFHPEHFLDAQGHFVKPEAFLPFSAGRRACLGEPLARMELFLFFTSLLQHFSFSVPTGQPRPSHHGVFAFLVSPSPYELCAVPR
smiles,measurement,setting,value
CN1CCN(C2=Nc3cc(Cl)ccc3Nc3ccccc32)CC1 [CLOZAPINE],Drug metabolism,Cytochrome P450 1A1,0.3 nmol/min
same,Drug metabolism,Cytochrome P450 2D6,0.51 nmol/min
same,Drug metabolism,Cytochrome P450 2C8 [1],0.92 nmol/min
same,Drug metabolism,Cytochrome P450 1A2,0.2 nmol/min
same,Drug metabolism,Cytochrome P450 2C8 [2],0.058 nmol/min
same,Drug metabolism,Cytochrome P450 2A6,0.17 nmol/min
